What was measured:
fungal strains = system: fungal strains; parameters: method as in PMID 38398524; conditions: cited from earlier work
[1] = system: osteosarcoma (HOS and MG-63) cells; assay: CellTiter-Glo 2.0 cytotoxicity, osteosarcoma; assay type: cell-based, human; conditions: osteosarcoma cell lines, 10 and 50 µM, 24 h
Procedure: (§1) Cytotoxicity of compounds was assessed using the CellTiter-Glo® 2.0 Assay (Promega, Madison, WI, USA) on human gingival fibroblasts (HGF), osteosarcoma (HOS and MG-63) and glioblastoma (LN-229 and U-118MG) cells, according to the manufacturer’s instructions. HGF, HOS, MG-63 and U-118MG cells were purchased from Cytion GmbH, Eppelheim, Germany, and LN-229 (CRL-2611) from the American Type Culture Collection (ATCC), Manassas, VA, USA. Cells were seeded (50,000 cells/mL—HGF, 100,000 cells/mL—tumor cells) into 96-well opaque white tissue culture-treated plates and allowed to adhere overnight in αMEM medium with 10% fetal bovine serum and 1% antibiotic-antimycotic (all from PAN—Biotech GmbH, Aidenbach, Germany). Cells were incubated with compounds (10 or 50 µM) for 24 h, then CellTiter-Glo® reagent was added and luminescence was recorded using a FLUOstar® Omega microplate reader (BMG LABTECH, Ortenberg, Germany). The experiments were carried out in triplicate, and the viability of treated cells was expressed as a percentage of the viability of control cells (untreated). Data were represented as means ± standard deviations. Stock solutions of compounds were prepared in DMSO, then diluted in complete cell culture media. […] Data were analyzed with independent two-tailed (Student’s) t-test, considering p < 0.05 statistically significant.

U-118MG = assay: CellTiter-Glo 2.0 cytotoxicity, glioblastoma; assay type: cell-based, human; conditions: 50 µM, 24 h
Procedure: as §1

LN-229 = assay: CellTiter-Glo 2.0 cytotoxicity, glioblastoma; assay type: cell-based, human; conditions: LN-229, 24 h
Procedure: as §1

SF-268 = assay: NCI-60 5-dose screen; assay type: cell-based, human; conditions: for GI50 / CC50: Homo sapiens; for CC50: read-out: LC50 (the source's name)
ACHN = assay: NCI-60 5-dose screen; assay type: cell-based, human; conditions: for GI50 / CC50: Homo sapiens; for CC50: read-out: LC50 (the source's name)
MALME-3M = assay: NCI-60 5-dose screen; assay type: cell-based, human; conditions: for GI50 / CC50: Homo sapiens, Malme-3M; for CC50: read-out: LC50 (the source's name); for TGI: MALME-3M
TK-10 = assay: NCI-60 5-dose screen; assay type: cell-based, human; conditions: for GI50 / CC50: Homo sapiens; for CC50: read-out: LC50 (the source's name)
MDA-MB-468 = assay: NCI-60 5-dose screen; assay type: cell-based, human; conditions: for GI50 / CC50: Homo sapiens; for CC50: read-out: LC50 (the source's name)
PC-3 = assay: NCI-60 5-dose screen; assay type: cell-based, human; conditions: for GI50 / CC50: Homo sapiens; for CC50: read-out: LC50 (the source's name)
SW-620 = assay: NCI-60 5-dose screen; assay type: cell-based, human; conditions: for GI50 / CC50: Homo sapiens; for CC50: read-out: LC50 (the source's name)
RXF 393 = assay: NCI-60 5-dose screen; assay type: cell-based, human; conditions: for GI50 / CC50: Homo sapiens; for CC50: read-out: LC50 (the source's name)
HL-60(TB) = assay: NCI-60 5-dose screen; assay type: cell-based, human; conditions: for GI50 / CC50: Homo sapiens; for CC50: read-out: LC50 (the source's name)
SK-OV-3 = assay: NCI-60 5-dose screen; assay type: cell-based, human; conditions: for GI50 / CC50: Homo sapiens; for CC50: read-out: LC50 (the source's name)
NCI-H226 = assay: NCI-60 5-dose screen; assay type: cell-based, human; conditions: for GI50 / CC50: Homo sapiens; for CC50: read-out: LC50 (the source's name)
SNB-75 = assay: NCI-60 5-dose screen; assay type: cell-based, human; conditions: for GI50 / CC50: Homo sapiens; for CC50: read-out: LC50 (the source's name)
SR = assay: NCI-60 5-dose screen; assay type: cell-based, human; conditions: for GI50 / CC50: Homo sapiens; for CC50: read-out: LC50 (the source's name)
HOP-92 = assay: NCI-60 5-dose screen; assay type: cell-based, human; conditions: for GI50 / CC50: Homo sapiens; for CC50: read-out: LC50 (the source's name)
HT29 = assay: NCI-60 5-dose screen; assay type: cell-based, human; conditions: for GI50 / CC50: Homo sapiens; for GI50: HT-29; for CC50: HT-29, read-out: LC50 (the source's name)
CCRF-CEM = assay: NCI-60 5-dose screen; assay type: cell-based; conditions: Homo sapiens; for CC50: read-out: LC50 (the source's name)
M14 = assay: NCI-60 5-dose screen; assay type: cell-based, human; conditions: for GI50 / CC50: Homo sapiens; for CC50: read-out: LC50 (the source's name)
A498 = assay: NCI-60 5-dose screen; assay type: cell-based, human; conditions: for GI50 / CC50: Homo sapiens; for CC50: read-out: LC50 (the source's name)
HOP-62 = assay: NCI-60 5-dose screen; assay type: cell-based, human; conditions: for GI50 / CC50: Homo sapiens; for CC50: read-out: LC50 (the source's name)
CAKI-1 = assay: NCI-60 5-dose screen; assay type: cell-based, human; conditions: for GI50 / CC50: Homo sapiens; for CC50: read-out: LC50 (the source's name)
KM12 = assay: NCI-60 5-dose screen; assay type: cell-based, human; conditions: for GI50 / CC50: Homo sapiens; for CC50: read-out: LC50 (the source's name)
MOLT-4 = assay: NCI-60 5-dose screen; assay type: cell-based, human; conditions: for GI50 / CC50: Homo sapiens; for CC50: read-out: LC50 (the source's name)

## COc1ccccc1C1C=C(Nc2ccc(I)cc2)C(=O)N1c1ccc(I)cc1 (stereo not shown) [3i]
Fungal strains
  antifungal activity (in words): most effective against fungal strains

## O=C1C(Nc2ccc(I)cc2)=CC(c2ccc(O)cc2)N1c1ccc(I)cc1 (stereo not shown) [3g]
[1]
  cytotoxicity (activity in words): notable activity
U-118MG
  cytotoxicity (activity in words): moderate activity
LN-229
  cytotoxicity (activity in words): ineffective

## N#Cc1ccc(C2C=C(Nc3ccc(I)cc3)C(=O)N2c2ccc(I)cc2)cc1 (stereo not shown) [3l]
SF-268
  TGI: >100 µM
  GI50: 4.69 µM
  CC50: > 100 µM
ACHN
  TGI: >100 µM
  GI50: 5.36 µM
  CC50: > 100 µM
MALME-3M
  GI50: 2.07 µM
  CC50: > 100 µM
  TGI: >100 µM
TK-10
  TGI: >100 µM
  GI50: 3.85 µM
  CC50: > 100 µM
MDA-MB-468
  TGI: >100 µM
  GI50: 2.7 µM
  CC50: > 100 µM
PC-3
  TGI: >100 µM
  GI50: 2.4 µM
  CC50: > 100 µM
U-118MG
  cytotoxicity (activity in words): moderate activity
LN-229
  cytotoxicity (activity in words): ineffective
SW-620
  TGI: >100 µM
  GI50: 5.91 µM
  CC50: > 100 µM
RXF 393
  TGI: >100 µM
  GI50: 3.72 µM
  CC50: > 100 µM
HL-60(TB)
  TGI: >100 µM
  GI50: > 100 µM
  CC50: > 100 µM
SK-OV-3
  TGI: >100 µM
  GI50: 6.41 µM
  CC50: > 100 µM
NCI-H226
  TGI: >100 µM
  GI50: 4.42 µM
  CC50: > 100 µM
Fungal strains
  antifungal activity (in words): most effective against fungal strains
SNB-75
  TGI: 3.42 µM
  GI50: 1.34 µM
  CC50: 8.76 µM
SR
  TGI: >100 µM
  GI50: 6.28 µM
  CC50: > 100 µM
HOP-92
  TGI: 4.89 µM
  GI50: 1.46 µM
  CC50: > 100 µM
HT29
  TGI: >100 µM
  GI50: 9.43 µM
  CC50: > 100 µM
CCRF-CEM
  GI50: 3.26 µM
  CC50: > 100 µM
M14
  TGI: >100 µM
  GI50: 7.24 µM
  CC50: > 100 µM
A498
  TGI: >100 µM
  GI50: 2.99 µM
  CC50: > 100 µM
HOP-62
  TGI: >100 µM
  GI50: 5.21 µM
  CC50: > 100 µM
CAKI-1
  TGI: >100 µM
  GI50: 9.48 µM
  CC50: > 100 µM
KM12
  TGI: >100 µM
  GI50: 9.7 µM
  CC50: > 100 µM
MOLT-4
  TGI: >100 µM
  GI50: 2.11 µM
  CC50: > 100 µM

## O=C1C(Nc2ccc(I)cc2)=CC(c2ccc(C(F)(F)F)cc2)N1c1ccc(I)cc1 (stereo not shown) [3e]
SF-268
  TGI: >100 µM
  GI50: 4.66 µM
  CC50: > 100 µM
ACHN
  TGI: >100 µM
  GI50: 4.05 µM
  CC50: > 100 µM
MALME-3M
  GI50: 2 µM
  CC50: 9.34 µM
  TGI: 4.32 µM
TK-10
  TGI: >100 µM
  GI50: > 100 µM
  CC50: > 100 µM
MDA-MB-468
  TGI: >100 µM
  GI50: 3.24 µM
  CC50: > 100 µM
PC-3
  TGI: >100 µM
  GI50: 9.99 µM
  CC50: > 100 µM
U-118MG
  cytotoxicity (activity in words): moderate activity
LN-229
  cytotoxicity (activity in words): ineffective
SW-620
  TGI: >100 µM
  GI50: > 100 µM
  CC50: > 100 µM
RXF 393
  TGI: >100 µM
  GI50: 4.23 µM
  CC50: > 100 µM
HL-60(TB)
  TGI: >100 µM
  GI50: 4.48 µM
  CC50: > 100 µM
SK-OV-3
  TGI: >100 µM
  GI50: > 100 µM
  CC50: > 100 µM
NCI-H226
  TGI: >100 µM
  GI50: 8.48 µM
  CC50: > 100 µM
SNB-75
  TGI: 5.06 µM
  GI50: 2.6 µM
  CC50: 9.85 µM
SR
  TGI: >100 µM
  GI50: 2.84 µM
  CC50: > 100 µM
HOP-92
  TGI: 7.22 µM
  GI50: 3.15 µM
  CC50: > 100 µM
HT29
  TGI: >100 µM
  GI50: > 100 µM
  CC50: > 100 µM
CCRF-CEM
  GI50: 3.35 µM
  CC50: > 100 µM
M14
  TGI: >100 µM
  GI50: 8.94 µM
  CC50: > 100 µM
A498
  TGI: 3.56 µM
  GI50: 1.95 µM
  CC50: 6.5 µM
HOP-62
  TGI: >100 µM
  GI50: > 100 µM
  CC50: > 100 µM
CAKI-1
  TGI: >100 µM
  GI50: 3.72 µM
  CC50: > 100 µM
KM12
  TGI: >100 µM
  GI50: > 100 µM
  CC50: > 100 µM
MOLT-4
  TGI: >100 µM
  GI50: 2.92 µM
  CC50: > 100 µM

From publication PMC12736255, “Reinvestigating Pyrrol-2-One-Based Compounds: From Antimicrobial Agents to Promising Antitumor Candidates” (Pharmaceuticals, 2025)
